The record followed here is ChEMBL document CHEMBL1201862, “PubChem BioAssay data set” (2004).

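These data come from cells grown in 96-well plates and exposed to compound for 48 hours at five concentrations. Here, GI50 denotes the concentration required for 50% inhibition of growth.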 Calls of active or inactive are those of the source. Cut-off read from the data, not from the text of the source: active = GI50 up to about 1.1 µM and inactive = higher.

Test systems include CCRF-CEM; DLD-1; DMS-273; HCC 2998; HCT-15; HOP-62; HT-29; IGROV-1; NCI-H23; NCI-H522; OVCAR-3; OVCAR-4; OVCAR-5; RPMI-8226; SNB-19; HCT-116.
What all share (assay): NCI anticancer screen, dose series, 48 h

`O=c1[nH]c(=O)n(C2CC(O)C(CO)O2)cc1C#Cc1cc(F)cc(F)c1` (centres undefined): the GI50 is > 100 µM (inactive) with CCRF-CEM; > 100 µM (inactive) with DLD-1; > 100 µM (inactive) in the experiment with DMS-273; > 100 µM (inactive) in the experiment on HCC 2998; greater than 100 µM in the experiment with HCT-15; > 100 µM (inactive) in the experiment on HOP-62. Moreover, the GI50 in the experiment on HT-29, in the experiment with IGROV-1, in the experiment with NCI-H23, in the experiment with NCI-H522, with OVCAR-3 and in the experiment with OVCAR-4 was > 100 µM (inactive) in each case. Moreover, the GI50 in the experiment on OVCAR-5, in the experiment with RPMI-8226 and with SNB-19 was > 100 µM (inactive) each time.
With `COc1ccc(/N=N/c2c(N)nn(C)c2N)cc1`, the GI50 in the experiment on CCRF-CEM is 92.7 µM (inactive); in the experiment with DLD-1, > 100 µM (inactive); in the experiment on DMS-273, > 100 µM (inactive); in the experiment with HCC 2998 it was 0.319 µM (active); in the experiment on HCT-116 it was > 100 µM (inactive); in the experiment on HCT-15 it was greater than 100 µM. In addition, the GI50 in the experiment with HOP-62, in the experiment with HT-29, in the experiment on IGROV-1, in the experiment on NCI-H23, with NCI-H522 and with OVCAR-3 was > 100 µM (inactive) in each case. Besides, the GI50 in the experiment on OVCAR-4, in the experiment on OVCAR-5, with RPMI-8226 and in the experiment with SNB-19 was > 100 µM (inactive) throughout.
In the case of `[O-][S+]1Cc2ccccc2CS1` (centres undefined), the GI50 was 16.7 µM (inactive) in the experiment on DLD-1; 14.2 µM (inactive) in the experiment on DMS-273; 29.7 µM (inactive) in the experiment with HCC 2998; 20.5 µM (inactive) in the experiment on HCT-116; 34.9 µM with HCT-15; 15.8 µM (inactive) with HT-29. Moreover, the GI50 in the experiment with IGROV-1 is 68.2 µM (inactive); in the experiment on NCI-H23, 14.1 µM (inactive); in the experiment on NCI-H522 it was 6.81 µM (inactive); with OVCAR-3 it was 15.1 µM (inactive); with OVCAR-4, 16 µM (inactive); in the experiment on OVCAR-5, 18.2 µM (inactive). Further, the GI50 with RPMI-8226 was 13.9 µM (inactive); in the experiment with SNB-19, > 100 µM (inactive).
Consider `O=C1N=C(Nc2ccccc2Cl)SC1C(=O)Nc1ccc([N+](=O)[O-])cc1[N+](=O)[O-]` (centres undefined), for which the GI50 with CCRF-CEM is > 100 µM (inactive); in the experiment on DLD-1, > 100 µM (inactive); with DMS-273, > 100 µM (inactive); with HCC 2998, > 100 µM (inactive); in the experiment with HCT-116, > 100 µM (inactive); in the experiment on HCT-15, greater than 100 µM. For the same molecule, the GI50 with HOP-62, in the experiment with HT-29, with IGROV-1, in the experiment with NCI-H23, with NCI-H522 and with OVCAR-3 was > 100 µM (inactive) throughout. The GI50 in the experiment with OVCAR-4, in the experiment with OVCAR-5, with RPMI-8226 and with SNB-19 was > 100 µM (inactive) throughout.
For `O=C1C2=C(c3ccccc31)C(c1ccc(Cl)cc1)N1C(=O)CCSC1=N2` (centres undefined), the GI50 was 51.1 µM (inactive) with CCRF-CEM; > 100 µM (inactive) in the experiment on DLD-1; > 100 µM (inactive) in the experiment on DMS-273; > 100 µM (inactive) with HCC 2998; 69.2 µM (inactive) in the experiment with HCT-116; 67.8 µM with HCT-15. Besides, the GI50 was > 100 µM (inactive) in the experiment with HOP-62; > 100 µM (inactive) in the experiment with HT-29; 98.6 µM (inactive) in the experiment on IGROV-1; 76.7 µM (inactive) with NCI-H23; 45.5 µM (inactive) in the experiment with NCI-H522; 84.3 µM (inactive) with OVCAR-3. Also, the GI50 was 36.1 µM (inactive) in the experiment with OVCAR-4, > 100 µM (inactive) in the experiment on OVCAR-5, 39 µM (inactive) with RPMI-8226 and > 100 µM (inactive) with SNB-19.
Consider `CCCCCC(/C=C/[C@@H]1[C@H]2CC(=O)O[C@H]2C[C@H]1N1CCOCC1)OC1CCCO1` (some centres undefined), for which the GI50 with CCRF-CEM is > 100 µM (inactive); in the experiment on DLD-1 it was > 100 µM (inactive); with DMS-273, > 100 µM (inactive); in the experiment on HCC 2998, > 100 µM (inactive); with HCT-116, > 100 µM (inactive); in the experiment on HCT-15 it was greater than 100 µM. Also, the GI50 with HOP-62, with HT-29, in the experiment with IGROV-1, with NCI-H23, with NCI-H522 and in the experiment on OVCAR-3 was > 100 µM (inactive) each time. For the same molecule, the GI50 in the experiment on OVCAR-4, in the experiment with OVCAR-5, in the experiment with RPMI-8226 and with SNB-19 was > 100 µM (inactive) in each case.
On to `CC(=O)Nc1ccc(S(=O)(=O)Nc2cnc3ccccc3n2)cc1`, for which the GI50 in the experiment with CCRF-CEM is > 100 µM (inactive); with DLD-1, > 100 µM (inactive); with DMS-273, > 100 µM (inactive); in the experiment on HCC 2998 it was > 100 µM (inactive); in the experiment with HCT-15, greater than 100 µM; in the experiment with HOP-62 it was > 100 µM (inactive). The GI50 in the experiment with HT-29, in the experiment with IGROV-1, with NCI-H23, in the experiment on NCI-H522, with OVCAR-3 and in the experiment with OVCAR-4 was > 100 µM (inactive) in each case. For the same molecule, the GI50 in the experiment with OVCAR-5, in the experiment on RPMI-8226 and in the experiment on SNB-19 was > 100 µM (inactive) in each case.
In the case of `COc1ccc(/C=C2\CCC(CCN(C)C)(C3=CCCC3)C2=O)cc1Br` (centres undefined), the GI50 was 2.13 µM (inactive) in the experiment on CCRF-CEM; 5.13 µM (inactive) in the experiment on DLD-1; 3.78 µM (inactive) in the experiment with DMS-273; 2.33 µM (inactive) in the experiment on HCC 2998; 3.46 µM (inactive) in the experiment with HCT-116; 4.54 µM in the experiment with HCT-15. Besides, the GI50 with HOP-62 is 14.5 µM (inactive); in the experiment on HT-29, 2.59 µM (inactive); in the experiment with IGROV-1, 4.54 µM (inactive); with NCI-H23, 13.9 µM (inactive); in the experiment on NCI-H522, 2.06 µM (inactive); with OVCAR-3, 5.74 µM (inactive). For the same molecule, the GI50 in the experiment on OVCAR-4 is 3.68 µM (inactive); with OVCAR-5, 14 µM (inactive); with RPMI-8226, 2.17 µM (inactive); in the experiment on SNB-19, 9.44 µM (inactive).
Turning to `Cc1ccc(C)c(NC(=O)CC/C(=N\NC(=O)C(=O)NN)C(C)C(=O)c2ccc(O)cc2)c1` (centres undefined), the GI50 is > 100 µM (inactive) in the experiment with CCRF-CEM; > 100 µM (inactive) with DLD-1; > 100 µM (inactive) with DMS-273; > 100 µM (inactive) in the experiment on HCC 2998; > 100 µM (inactive) with HCT-116; greater than 100 µM in the experiment on HCT-15. The GI50 in the experiment on HOP-62, in the experiment on HT-29, with IGROV-1, in the experiment with NCI-H23, with NCI-H522 and in the experiment with OVCAR-3 was > 100 µM (inactive) in each case. Besides, the GI50 in the experiment with OVCAR-4, in the experiment with OVCAR-5, in the experiment with RPMI-8226 and in the experiment on SNB-19 was > 100 µM (inactive) throughout.
On to `Cn1c2cc(O)cc(O)c2c(=O)c2c([N+](=O)[O-])cccc21`, for which the GI50 is > 100 µM (inactive) in the experiment with CCRF-CEM; > 100 µM (inactive) with DLD-1; > 100 µM (inactive) with DMS-273; > 100 µM (inactive) in the experiment with HCC 2998; > 100 µM (inactive) with HCT-116; greater than 100 µM in the experiment on HCT-15. The GI50 in the experiment on HOP-62, in the experiment on HT-29, with IGROV-1, in the experiment on NCI-H23, with NCI-H522 and in the experiment with OVCAR-3 was > 100 µM (inactive) throughout. For the same molecule, the GI50 in the experiment on OVCAR-4, in the experiment on OVCAR-5, with RPMI-8226 and in the experiment on SNB-19 was > 100 µM (inactive) in each case.
On to `CCOc1ccc(NCC2CC/C(=C\c3ccccc3OC)C2=O)cc1` (centres undefined), for which the GI50 in the experiment on CCRF-CEM is 2.49 µM (inactive); with DLD-1, 3.09 µM (inactive); with DMS-273, 2.58 µM (inactive); in the experiment with HCC 2998 it was 12.8 µM (inactive); in the experiment with HCT-116, 4.33 µM (inactive); with HCT-15, 3.09 µM. The GI50 was 27.4 µM (inactive) in the experiment with HOP-62; 3.3 µM (inactive) in the experiment on HT-29; 10.6 µM (inactive) in the experiment with IGROV-1; 19.2 µM (inactive) in the experiment with NCI-H23; 1.94 µM (inactive) with NCI-H522; 6.37 µM (inactive) with OVCAR-3. The GI50 with OVCAR-4 was 6.38 µM (inactive); in the experiment on OVCAR-5, 18.5 µM (inactive); in the experiment on RPMI-8226 it was 0.92 µM (active); in the experiment on SNB-19 it was 15.9 µM (inactive).
`O=C1c2ccccc2C(=O)c2c(NCCNCCO)ccc(O)c21`: the GI50 with CCRF-CEM is 3.15 µM (inactive); in the experiment on DLD-1, 3.33 µM (inactive); with DMS-273, 2.22 µM (inactive); with HCC 2998, 4.66 µM (inactive); in the experiment on HCT-116, 1.81 µM (inactive); in the experiment on HCT-15 it was 3.46 µM. In addition, the GI50 in the experiment with HOP-62 is 3.21 µM (inactive); with HT-29, 2.58 µM (inactive); in the experiment on IGROV-1, 2.97 µM (inactive); in the experiment on NCI-H23, 2.59 µM (inactive); with NCI-H522, 2.59 µM (inactive); in the experiment with OVCAR-3 it was 6.46 µM (inactive). Also, the GI50 in the experiment with OVCAR-4 was 2.85 µM (inactive); in the experiment on OVCAR-5, 3.4 µM (inactive); in the experiment on RPMI-8226, 3.22 µM (inactive); in the experiment on SNB-19 it was 2.89 µM (inactive).
For the molecule `O=C1C/C(=C/c2ccc(/C=C3/CC(=O)N(c4cccc(Br)c4)C3=O)cc2)C(=O)N1c1cccc(Br)c1`, the GI50 in the experiment with CCRF-CEM was 66.1 µM (inactive); with DLD-1, > 100 µM (inactive); in the experiment on DMS-273, > 100 µM (inactive); in the experiment on HCC 2998 it was > 100 µM (inactive); in the experiment on HCT-116, > 100 µM (inactive); with HCT-15, greater than 100 µM. The GI50 in the experiment with HOP-62, in the experiment with HT-29, with IGROV-1, in the experiment with NCI-H23, in the experiment on NCI-H522 and in the experiment on OVCAR-3 was > 100 µM (inactive) each time. The GI50 with OVCAR-4, in the experiment with OVCAR-5, with RPMI-8226 and in the experiment with SNB-19 was > 100 µM (inactive) each time.
